Structures can show the parent of a compound that is named as a salt. Where two headings read alike, the source gives them in different places.

One assay addresses full-length human LSD1 (Homo sapiens (Human), UniProt O60341). The assay is described as follows: In vitro enzyme inhibition assay LSD-1 (TR-FRET). Format: biochemical. On the procedure: This assay determines the ability of a test compound to inhibit LSD1 demethylase activity.
The enzymatic assay of LSD1 activity is based on Time Resolved-Fluorescence Resonance Energy Transfer (TR-FRET) detection.
The ability of the compounds disclosed herein to inhibit LSD1 activity was quantified and the respective IC50 value was determined. Table 5 provides the IC50 values of various substituted heterocyclic compounds disclosed herein.
(Time-resolved FRET reads energy transfer from a long-lived donor to a nearby acceptor.)

The next assay has as its system THP-1 (AML) cells. Description: LSD1 CD11b cellular assay (flow cytometry). It counts as cell-based. To be noted: Homo sapiens, read-out: Cellular IC50. The procedure: To analyze LSD1 inhibitor efficacy in cells, a CD11b flow cytometry assay was performed. LSD1 inhibition induces CD11b expression in THP-1 (AML) cells which can be measured by flow cytometry. […] LSD1 test compounds were serially diluted in DMSO. The dilutions were added to each well accordingly to a final concentration of 0.2% DMSO. The cells were incubated at 37° C. in 5% CO2 for 4 days. 250 μL of each well was transferred to a well in a 96 well round bottom plate. The plate was centrifuged at 1200 rpm at 4 degrees Celsius in a Beckman Coulter Alegra 6KR centrifuge for 5 min. The media was removed leaving the cells at the bottom of the wells. The cells were washed in 100 μL cold HBSS (Hank's Balanced Salt Solution) plus 2% BSA (Bovine Serum Albumin) solution and centrifuged at 1200 rpm at 4° C. for 5 min. The wash was removed. […] The cells were centrifuged and washed two times in 100 μl HBSS plus 2% BSA. After the final spin the cells were resuspended in 100 μL HBSS plus 2% BSA containing 1 μg/mL DAPI (4′,6-diamidino-2-phenylindole). The cells were then analyzed by flow cytometry in a BD FACSAria machine. Cells were analyzed for CD11b expression. The percent of CD11b expressing cells for each inhibitor concentration was used to determine an IC50 curve for each compound analyzed.
On the technique in general: Flow cytometry measures light scatter and fluorescence of single cells or particles in a stream.

The mark [1] stands for this setting: 96 h, CD11b expression in THP-1 (AML) cells, flow cytometry, 4 days incubation.
[2] abbreviates: TR-FRET, 0.1 nM LSD1, 50 nM H3K4me1-biotin peptide, 2 μM FAD, pH7.3, read-out: LSD1 IC50.

By IC50 is commonly meant the concentration that gives 50% inhibition. Take `Cc1ccc(-c2nc3ccn(CC4(F)CCNC4)c3cc2-c2ccc(C#N)cc2)cc1` (stereo not shown) [Example 9, 4-[1-[(3-fluoropyrrolidin-3-yl)methyl]-5-(4-methylphenyl)pyrrolo[3,2-b]pyridin-6-yl]benzonitrile]: the values for the IC50 against full-length human LSD1 and in the assay with THP-1 (AML) cells (setting [1]) were less than 100 nM and 100 to 1000 nM, respectively.
For `Cc1ccc(-c2nc3ccn(C[C@H]4CNCCO4)c3cc2-c2ccc(C#N)cc2)cc1` [Example 10, 4-[5-(4-methylphenyl)-1-[[(2R)-morpholin-2-yl]methyl]pyrrolo[3,2-b]pyridin-6-yl]benzonitrile], the figures for the IC50 at full-length human LSD1 (setting [2]) and in the assay with THP-1 (AML) cells (setting [1]) were less than 100 nM and 1000 to 10000 nM, respectively.
`N#Cc1ccc(-c2cc3c(ccn3C[C@H]3CNCCO3)nc2-c2ccc(F)cc2)cc1` [Example 11, 4-[5-(4-fluorophenyl)-1-[[(2R)-morpholin-2-yl]methyl]pyrrolo[3,2-b]pyridin-6-yl]benzonitrile]: the IC50 is less than 100 nM on full-length human LSD1 (setting [2]) and 1000 to 10000 nM in the assay on THP-1 (AML) cells (setting [1]).
In the same order, the values of `Cc1ccc(-c2nc3ccn(CCCN)c3cc2-c2ccc(C#N)cc2)cc1` [Example 12] are less than 100 nM and 100 to 1000 nM.
In the same order, the values of `Cc1ccc(-c2nc3cnn(CC4CCNC4)c3cc2-c2ccc(C#N)cc2)cc1` (stereo not shown) [Example 13] are less than 100 nM and less than 100 nM.
Consider `Cc1ccc(-c2nc3cnn(CC4CCNCC4)c3cc2-c2ccc(C#N)cc2)cc1` [Example 14], for which the IC50 at full-length human LSD1 (setting [2]) and in the assay with THP-1 (AML) cells (setting [1]) was less than 100 nM throughout.
For the molecule `Cc1ccc(-c2nc3cnn(C[C@H]4[C@@H]5CNC[C@@H]54)c3cc2-c2ccc(C#N)cc2)cc1` [Example 15, 4-[1-[[(1S,5R)-3-azabicyclo[3.1.0]hexan-6-yl]methyl]-5-(4-methylphenyl)pyrazolo[4,3-b]pyridin-6-yl]benzonitrile], the IC50 at full-length human LSD1 (setting [2]) and in the assay with THP-1 (AML) cells (setting [1]) was less than 100 nM each time.
Regarding `Cc1ccc(-c2cnc(NC[C@H]3CCNC3)nc2-c2ccc(C#N)cc2)cc1` [Example 16, 4-[5-(4-methylphenyl)-2-{[(3S)-pyrrolidin-3-ylmethyl]amino}pyrimidin-4-yl]benzonitrile], the IC50 on full-length human LSD1 (setting [2]) and with THP-1 (AML) cells (setting [1]) was less than 100 nM in each case.
Take `N#Cc1ccc(-c2nc(NC[C@H]3CCNC3)ncc2-c2ccc(F)cc2)cc1` [Example 18, 4-[5-(4-fluorophenyl)-2-{[(3S)-pyrrolidin-3-ylmethyl]amino}pyrimidin-4-yl]benzonitrile]: the results for the IC50 on full-length human LSD1 (setting [2]) and in the assay on THP-1 (AML) cells (setting [1]) were less than 100 nM and 100 to 1000 nM, respectively.
As for `N#Cc1ccc(-c2nc(NC[C@H]3CCNC3)ncc2-c2ccc(Cl)cc2)cc1` [Example 19, 4-[5-(4-chlorophenyl)-2-{[(3S)-pyrrolidin-3-ylmethyl]amino}pyrimidin-4-yl]benzonitrile], the concentration for half-maximal inhibition (IC50) was less than 100 nM on full-length human LSD1 (setting [2]) and 100 to 1000 nM in the assay on THP-1 (AML) cells (setting [1]).
`Cc1ccc(-c2cnc(OC[C@@H]3CCNC3)nc2-c2ccc(C#N)cc2)cc1` [Example 20, 4-[5-(4-methylphenyl)-2-[(3R)-pyrrolidin-3-ylmethoxy]pyrimidin-4-yl]benzonitrile]: the IC50 is less than 100 nM at full-length human LSD1 (setting [2]) and 100 to 1000 nM in the assay with THP-1 (AML) cells (setting [1]).
With `Cc1ccc(-c2cnc(N3C[C@H]4CNC[C@H]4C3)nc2-c2ccc(C#N)cc2)cc1` [Example 21, 4-{2-[(3aR,6aS)-octahydropyrrolo[3,4-c]pyrrol-2-yl]-5-(4-methylphenyl)pyrimidin-4-yl}benzonitrile], the IC50 on full-length human LSD1 (setting [2]) and in the assay on THP-1 (AML) cells (setting [1]) was less than 100 nM in each case.
Consider `Cc1ccc(-c2cnc(N3CCC4CNCC4C3)nc2-c2ccc(C#N)cc2)cc1` (stereo not shown) [Example 22, 4-[5-(4-methylphenyl)-2-{octahydro-1H-pyrrolo[3,4-c]pyridin-5-yl}pyrimidin-4-yl]benzonitrile], for which the IC50 at full-length human LSD1 (setting [2]) and in the assay with THP-1 (AML) cells (setting [1]) was less than 100 nM in each case.
As to `Cc1ccc(-c2cnc(N3CC[C@@H]4CNC[C@@H]4CC3)nc2-c2ccc(C#N)cc2)cc1` [Example 23, 4-{2-[(3aR,8aS)-decahydropyrro[3,4-d]azepin-6-yl]-5-(4-methylphenyl)pyrimidin-4-yl}benzonitrile], the IC50 at full-length human LSD1 (setting [2]) and in the assay on THP-1 (AML) cells (setting [1]) was less than 100 nM each time.
Take `N#Cc1ccc(-c2nc(NC[C@H]3CCNC3)ncc2-c2ccc(C(F)(F)F)cc2)cc1` [Example 25, 4-(2-{[(3S)-pyrrolidin-3-ylmethyl]amino}-5-[4-(trifluoromethyl)phenyl]pyrimidin-4-yl)benzonitrile]: the values for the IC50 at full-length human LSD1 (setting [2]) and in the assay with THP-1 (AML) cells (setting [1]) were less than 100 nM and 100 to 1000 nM, respectively.
For the molecule `N#Cc1ccc(-c2nc(NC[C@H]3CCNC3)ncc2C#CC2CC2)cc1` [Example 26, 4-[5-(2-cyclopropylethynyl)-2-{[(3S)-pyrrolidin-3-ylmethyl]amino}pyrimidin-4-yl]benzonitrile], the half-inhibitory concentration (IC50) on full-length human LSD1 (setting [2]) is less than 100 nM; with THP-1 (AML) cells (setting [1]) it was 100 to 1000 nM.
On to `Cc1ccc(-c2cnc(N[C@@H]3C[C@H]4CNC[C@H]4C3)nc2-c2ccc(C#N)cc2)cc1` [Example 27, 4-(2-{[(3aR,5S,6aS)-octahydrocyclopenta[c]pyrrol-5-yl]amino}-5-(4-methylphenyl)pyrimidin-4-yl)benzonitrile], for which the IC50 on full-length human LSD1 (setting [2]) and in the assay on THP-1 (AML) cells (setting [1]) was 100 to 1000 nM each time.
Turning to `Cc1ccc(-c2cc(NCC3CCNC3)nn2-c2ccc(C#N)cc2)cc1` (stereo not shown) [Example 43, 4-[5-(4-methylphenyl)-3-(pyrrolidin-3-ylmethylamino)pyrazol-1-yl]benzonitrile], the IC50 at full-length human LSD1 (setting [2]) and with THP-1 (AML) cells (setting [1]) was less than 100 nM throughout.
For `Cc1ccc(-c2cc(NC[C@H]3CCNC3)nn2-c2ccc(C#N)cc2)cc1` [Example 44, 4-[5-(4-methylphenyl)-3-[[(3S)-pyrrolidin-3-yl]methylamino]pyrazol-1-yl]benzonitrile], the IC50 is less than 100 nM at full-length human LSD1 (setting [2]) and 100 to 1000 nM in the assay on THP-1 (AML) cells (setting [1]).
`Cc1ccc(-c2cc(NC[C@@H]3CCNC3)nn2-c2ccc(C#N)cc2)cc1` [Example 45, 4-[5-(4-methylphenyl)-3-[[(3R)-pyrrolidin-3-yl]methylamino]pyrazol-1-yl]benzonitrile]: the figures for the IC50 on full-length human LSD1 (setting [2]) and with THP-1 (AML) cells (setting [1]) were less than 100 nM and 100 to 1000 nM, respectively.
In the same order, the values of `Cc1ccc(-c2cc(NCC3CCNCC3)nn2-c2ccc(C#N)cc2)cc1` [Example 46, 4-[5-(4-methylphenyl)-3-(piperidin-4-ylmethylamino)pyrazol-1-yl]benzonitrile] are less than 100 nM and 100 to 1000 nM.
In the same order, the values of `Cc1ccc(-c2cc(NC[C@H]3[C@@H]4CNC[C@@H]43)nn2-c2ccc(C#N)cc2)cc1` [Example 47, 4-[3-[[(1S,5R)-3-azabicyclo[3.1.0]hexan-6-yl]methylamino]-5-(4-methylphenyl)pyrazol-1-yl]benzonitrile] are less than 100 nM and 100 to 1000 nM.
As for `COc1ccc(-c2nc3ccn(C[C@@H]4CCNC4)c3cc2-c2ccc(C#N)cc2)cc1` [Example 49, 4-{1-[((3R)pyrrolidin-3-yl)methyl]-5-(4-methoxyphenyl)pyrrolo[3,2-b]pyridin-6-yl}benzenecarbonitrile, HCl salt], the IC50 at full-length human LSD1 (setting [2]) and in the assay with THP-1 (AML) cells (setting [1]) was less than 100 nM each time.
Regarding `COc1ccc(-c2nc3ccn(C[C@@H]4CCNC4)c3cc2-c2ccc(C#N)cc2)cc1F` [Example 50, 4-{1-[((3R)pyrrolidin-3-yl)methyl]-5-(3-fluoro-4-methoxyphenyl)pyrrolo[3,2-b]pyridin-6-yl}benzenecarbonitrile, HCl salt], the IC50 at full-length human LSD1 (setting [2]) and in the assay on THP-1 (AML) cells (setting [1]) was less than 100 nM in each case.
With `COc1ccc(-c2nc3ccn(C[C@H]4CCNC4)c3cc2-c2ccc(C#N)cc2)cc1F` [Example 51, 4-{1-[((3S)pyrrolidin-3-y])methyl]-5-(3-fluoro-4-methoxyphenyl)pyrrolo[3,2-b]pyridin-6-yl}benzenecarbonitrile, HCl salt], the IC50 on full-length human LSD1 (setting [2]) and in the assay with THP-1 (AML) cells (setting [1]) was less than 100 nM in each case.
Take `COc1ccc(-c2nc3ccn(C[C@@H]4CCNC4)c3cc2-c2ccc(C#N)c(F)c2)cc1` [Example 52, HCl salt]: the IC50 on full-length human LSD1 (setting [2]) is less than 100 nM; in the assay with THP-1 (AML) cells (THP-1, 96 h), less than 100 nM.
In the case of `COc1ccc(-c2nc3ccn(C[C@@H]4CCNC4)c3cc2-c2ccc(C#N)c(F)c2)cc1F` [Example 53, 4-{1-[((3R)pyrrolidin-3-yl)methyl]-5-(3-fluoro-4-methoxyphenyl)pyrrolo[3,2-b]pyridin-6-yl}-2-fluorobenzenecarbonitrile HCl salt], the IC50 at full-length human LSD1 (setting [2]) and in the assay with THP-1 (AML) cells (setting [1]) was less than 100 nM in each case.
Turning to `COc1ccc(-c2nc3ccn(C[C@H]4CCNC4)c3cc2-c2ccc(C#N)c(F)c2)cc1` [Example 54], the IC50 at full-length human LSD1 (setting [2]) and with THP-1 (AML) cells (setting [1]) was less than 100 nM in each case.
For `N#Cc1ccc(-n2nc(C(=O)N3CCC[C@@H](N)C3)cc2OCc2cccnc2)cc1` [Example 57, 4-{3-[((3R)-3-Aminopiperidyl)carbonyl]-5-(3-pyridylmethoxy)pyrazolyl}benzenecarbonitrile], the IC50 on full-length human LSD1 (setting [2]) is less than 100 nM; in the assay with THP-1 (AML) cells (setting [1]) it was 100 to 1000 nM.
